Data as given in PubChem BioAssay AID651894 (Broad Institute, 2012).

System: T. b. rhodesiense STIB900 bloodstream, Alamar blue, 72 h
Assay: T. b. rhodesiense proliferation inhibition, dose response, STIB900 strain, plate reader, dry powder (AID 651894)

## C[C@@H]1CN([C@@H](C)CO)C(=O)c2cccc(NC(=O)c3ccncc3)c2O[C@H]1CN(C)Cc1ccc(Oc2ccccc2)cc1
  IC50: 170 nM
